Results as given in ChEMBL document CHEMBL4715866, “A Chemical Probe for Dark Kinase STK17B Derives Its Potency and High Selectivity through a Unique P-Loop Conformation” (J Med Chem, 2020).
≈ marks a conversion by molar mass, not a printed value.

Assays:
[1] = molecular target: T1, Serine/threonine-protein kinase 17B (Homo sapiens, UniProt O94768)
T1 sequence (O94768 whole entry): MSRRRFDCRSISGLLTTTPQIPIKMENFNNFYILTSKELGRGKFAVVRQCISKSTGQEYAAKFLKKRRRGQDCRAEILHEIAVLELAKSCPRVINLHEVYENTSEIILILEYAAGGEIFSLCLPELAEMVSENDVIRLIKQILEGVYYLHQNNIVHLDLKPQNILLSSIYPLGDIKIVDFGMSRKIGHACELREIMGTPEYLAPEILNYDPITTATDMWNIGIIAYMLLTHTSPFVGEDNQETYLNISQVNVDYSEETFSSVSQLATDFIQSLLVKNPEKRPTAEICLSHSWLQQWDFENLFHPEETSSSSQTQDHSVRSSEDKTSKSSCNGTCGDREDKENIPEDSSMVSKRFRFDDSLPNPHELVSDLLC

[2] = Kinetic solubility in pH 7.4 PBS; assay type: physicochemical; conditions: read-out: Kinetic_solubility
[3] = molecular target: T1, Serine/threonine-protein kinase 17B; assay: Inhibition of N-terminal His-tagged STK17B kinase domain (25 to 329 residues) (unknown origin) expressed in Escherichia coli incubated for 90 mins by Kinase seeker split luciferase assay
[4] = Stability in mouse liver microsomes assessed as compound remaining at 0.1 mM in presence of NADPH regeneration system after 30 mins by LC-MS/MS analysis; assay type: ADME, Microsome; conditions: read-out: Stabilty
[5] = molecular target: T2, Serine/threonine-protein kinase 17A (Homo sapiens, UniProt Q9UEE5); assay: Binding affinity to STK17A (unknown origin) by KINOMEscan scanMAX assay
T2 sequence (Q9UEE5 whole entry): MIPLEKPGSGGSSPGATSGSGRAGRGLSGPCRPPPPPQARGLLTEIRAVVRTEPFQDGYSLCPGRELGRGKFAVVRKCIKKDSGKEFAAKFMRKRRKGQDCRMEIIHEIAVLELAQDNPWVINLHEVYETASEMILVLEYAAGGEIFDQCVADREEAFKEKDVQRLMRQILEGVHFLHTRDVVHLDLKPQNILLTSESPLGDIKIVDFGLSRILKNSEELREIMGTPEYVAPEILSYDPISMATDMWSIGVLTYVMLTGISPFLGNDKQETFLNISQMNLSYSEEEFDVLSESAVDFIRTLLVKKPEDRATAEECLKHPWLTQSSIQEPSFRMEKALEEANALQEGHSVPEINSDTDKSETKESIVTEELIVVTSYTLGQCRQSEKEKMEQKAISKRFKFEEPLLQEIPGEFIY

[6] = molecular target: T3, Homeodomain-interacting protein kinase 4 (Homo sapiens, UniProt Q8NE63); assay: Binding affinity to human HIPK4 by KINOMEscan scanMAX assay
T3 sequence (Q8NE63 whole entry): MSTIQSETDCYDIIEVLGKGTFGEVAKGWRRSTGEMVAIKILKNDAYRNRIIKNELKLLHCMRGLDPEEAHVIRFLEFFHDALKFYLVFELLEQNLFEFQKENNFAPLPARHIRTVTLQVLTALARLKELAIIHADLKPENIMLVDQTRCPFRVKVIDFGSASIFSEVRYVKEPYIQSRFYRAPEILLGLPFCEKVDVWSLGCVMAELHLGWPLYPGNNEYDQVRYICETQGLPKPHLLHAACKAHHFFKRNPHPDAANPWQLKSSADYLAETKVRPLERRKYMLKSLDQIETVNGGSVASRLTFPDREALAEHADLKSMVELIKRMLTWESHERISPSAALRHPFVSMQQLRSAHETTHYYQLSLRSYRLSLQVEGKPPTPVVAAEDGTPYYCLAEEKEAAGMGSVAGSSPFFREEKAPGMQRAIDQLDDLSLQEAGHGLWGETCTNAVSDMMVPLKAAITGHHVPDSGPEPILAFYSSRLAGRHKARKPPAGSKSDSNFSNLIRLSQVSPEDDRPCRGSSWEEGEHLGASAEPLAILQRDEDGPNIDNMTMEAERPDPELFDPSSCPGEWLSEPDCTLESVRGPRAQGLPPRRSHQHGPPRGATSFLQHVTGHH

[7] = molecular target: T1, Serine/threonine-protein kinase 17B; assay: Binding affinity to N-terminal His-tagged STK17B kinase domain (25 to 329 residues) (unknown origin) expressed in Escherichia coli by KINOMEscan scanMAX assay
[8] = molecular target: T2, Serine/threonine-protein kinase 17A; assay: Inhibition of STK17A (unknown origin) incubated for 90 mins by Kinase seeker split luciferase assay

| SMILES | IC50 [1] [nM] | solubility kinetic [2] [µg/mL] | IC50 [3] [nM] | remaining at 0.5 h, 100 µM [4] [%] | also measured |
| --- | --- | --- | --- | --- | --- |
| CSc1ccc(-c2cc3ncnc(NCC(=O)O)c3s2)cc1 | > 10000 | – | – | – | – |
| C=Cc1ccc(-c2cc3ncnc(SCC(=O)O)c3s2)cc1 | 120 | 74 (≈ 225 µM) | 28 | 38 | – |
| COc1ccccc1-c1cc2ncnc(SCC(=O)O)c2s1 | 1700 | 69 (≈ 208 µM) | 110 | 24 | – |
| O=C(O)CSc1ncnc2cc(-c3ccc(Cl)cc3)sc12 | 680 | – | 39 | – | – |
| CC(=O)Nc1ccc(-c2cc3ncnc(SCC(=O)O)c3s2)cc1 | > 10000 | – | 23 | – | – |
| O=C(O)CSc1ncnc2cc(-c3ccc(F)c(F)c3)sc12 | 820 | 65 (≈ 192 µM) | 74 | 95 | – |
| O=C(O)CSc1ncnc2cc(-c3cccs3)sc12 | 650 | 56 (≈ 182 µM) | 63 | 47 | – |
| C[S+]([O-])c1ccc(-c2cc3ncnc(SCC(=O)O)c3s2)cc1 (stereo not drawn) | > 10000 | – | 7 | – | – |
| O=C(O)CSc1ncnc2cc(-c3cccc(N4CCOCC4)c3)sc12 | 2900 | 54 (≈ 139 µM) | 83 | 73 | – |
| CCc1ccc(-c2cc3ncnc(SCC(=O)O)c3s2)cc1 | 380 | – | 41 | – | – |
| O=C(O)CSc1ncnc2sc(-c3cc4ccccc4s3)cc12 | > 10000 | – | 4800 | – | Kd [5]: 9800 nM; Kd [6]: 290 nM; Kd [7]: 910 nM; IC50 [8]: > 10000 nM |
| O=C(O)CSc1ncnc2cc(-c3ccc(C4CC4)cc3)sc12 | 530 | 55 (≈ 161 µM) | 62 | 66 | – |
| CSc1ccc(-c2cc3ncnc(SCC(=O)O)c3s2)cc1 | 210 | 42 (≈ 121 µM) | 20 | 0 | Kd [5]: 230 nM |
| COc1ccc(-c2cc3c(SCC(=O)O)ncnc3s2)cc1 | > 10000 | – | – | – | – |
| O=C(O)CSc1ncnc2sc(-c3ccc(Cl)c(Cl)c3)cc12 | > 10000 | – | – | – | – |
| COc1ccccc1-c1cc2c(SCC(=O)O)ncnc2s1 | > 10000 | – | 880 | – | – |
| COc1cccc(-c2cc3c(SCC(=O)O)ncnc3s2)c1 | > 10000 | – | – | – | – |
| O=C(O)COc1ncnc2cc(-c3ccc(Cl)cc3)sc12 | > 10000 | – | – | – | – |
| CC(=O)c1ccc(-c2cc3ncnc(SCC(=O)O)c3s2)cn1 | > 10000 | – | 37 | – | – |
| O=C(O)CSc1ncnc2cc(-c3ccc(C(F)(F)F)cc3)sc12 | 340 | 57 (≈ 154 µM) | 33 | 88 | – |

| SMILES | IC50 [1] [nM] | solubility kinetic [2] [µg/mL] | IC50 [3] [nM] | remaining at 0.5 h, 100 µM [4] [%] | also measured |
| --- | --- | --- | --- | --- | --- |
| CC(C)c1ccc(-c2cc3ncnc(SCC(=O)O)c3s2)cc1 | 550 | 23 (≈ 66.8 µM) | 59 | 35 | – |
| CCOC(=O)CNc1ncnc2cc(-c3ccc(SC)cc3)sc12 | > 10000 | – | – | – | – |
| N#Cc1ccc(-c2cc3ncnc(SCC(=O)O)c3s2)cc1 | 3200 | – | 35 | – | – |
| O=C(O)CSc1ncnc2cc(-c3cccc(F)c3)sc12 | 980 | – | 49 | – | – |
| CCOC(=O)c1ccc(-c2cc3ncnc(SCC(=O)O)c3s2)cc1 | 870 | 59 (≈ 158 µM) | 40 | 0 | – |
| CC(=O)c1ccc(-c2cc3ncnc(SCC(=O)O)c3s2)cc1 | 1500 | – | 13 | – | – |
| O=C(O)CSc1ncnc2cc(-c3ccc(OCc4ccccc4)cc3)sc12 | > 10000 | – | 110 | – | – |
| O=C(O)CSc1ncnc2cc(-c3ccc(Cl)c(Cl)c3)sc12 | 310 | – | 92 | – | – |
| CCOC(=O)COc1ncnc2cc(-c3ccc(Cl)cc3)sc12 | > 10000 | – | – | – | – |
| CSc1ccc(-c2cc3c(SCC(=O)O)ncnc3s2)cc1 | > 10000 | – | – | – | – |
| COc1ccc(-c2cc3ncnc(SCC(=O)O)c3s2)cc1F | 700 | 49 (≈ 140 µM) | 18 | 88 | – |
| CSc1cccc(-c2cc3ncnc(SCC(=O)O)c3s2)c1 | 500 | – | 49 | – | – |
| O=C(O)CSc1ncnc2cc(-c3ccc(N4CCOCC4)cc3)sc12 | 720 | 61 (≈ 157 µM) | 14 | 63 | – |
| O=C(O)CSc1ncnc2cc(-c3ccccc3F)sc12 | 1200 | 51 (≈ 159 µM) | 60 | 45 | – |
| CSc1ccc(-c2cc3ncnc(SCC(N)=O)c3s2)cc1 | > 10000 | – | – | – | – |
| CSc1cccc(-c2cc3c(SCC(=O)O)ncnc3s2)c1 | > 10000 | – | – | – | – |
| CSc1ccc(-c2cc3ncnc(SCC(=O)O)c3s2)cc1F | 530 | 52 (≈ 142 µM) | 27 | 18 | – |
| CC(C)Sc1ccc(-c2cc3ncnc(SCC(=O)O)c3s2)cc1 | > 10000 | – | 49 | – | – |
| CC(=O)Nc1cccc(-c2cc3ncnc(SCC(=O)O)c3s2)c1 | > 10000 | – | 35 | – | – |
| O=C(O)CSc1ncnc2cc(-c3cccc(OC(F)(F)F)c3)sc12 | 500 | – | 280 | – | – |
